According to patent US9572347B2, “Method for inactivating a virus” (THE UNIVERSITY OF TOKYO, priority 2009, dated 2017):

Tested on: Qβ phage (NBRC 20012)
Test: phage inactivation ability test on sample-coated glass plate (Example 1 method)
Format: cell-based
Details: same copper ion ratio, contact of 30 minutes, FIG. 2

Row | Compound | phage inactivation effect
1 | [Cl][Cu] [CuCl, cuprous chloride] | almost the same phage inactivation ability as that of cuprous oxide
2 | [Cu+].[I-] [CuI, cuprous iodide] | high phage inactivation effect
3 | cupric sulfide [CuS, reference compound] | almost no inactivation effect
4 | cuprous sulfide [Cu2S] | high phage inactivation effect
